The target of assay [1] is T1, human Dopamine D2L receptor (Homo sapiens, UniProt P14416).
T1 construct: expressed in transfected cells; host or cells: CHO cells
Kind of assay: In vitro binding affinity for human D2L receptor ([3H]Spiperone binding). The following applies: human D2L receptor-transfected CHO cell membranes; for IC50: read-out: D2L pIC50 (converted). In a few lines: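 Competition curves were expressed as percent specific binding, measured by scintillation counting after filtration onto GF/B filters and ice-cold Tris washes. Test compounds competed with [3H]Spiperone, added from a 2 nmol/L dilution, for 30 min at 37° C on transfected CHO membranes in pH 7.7 Tris-HCl salt buffer. Butaclamol at 10^−6 mol/l final marked non-specific binding.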

The target in assay [2] is T2, human cloned 5-HT2A receptor, expressed in L929 cells (Homo sapiens, UniProt P28223).
T2 construct: expressed in transfected cells; host or cells: L929 cells
Kind of assay: In vitro binding affinity for 5-HT2A receptor ([125I]R91150 radioligand binding). Conditions: human cloned 5-HT2A receptor in L929 cells, [125I]R91150; for IC50: read-out: 5-HT2A pIC50 (converted). As for the experimental part: In Vitro Binding Affinity for 5-HT2A and 5-HT2C Receptors
The interaction of the compounds of Formula (I) with 5-HT2A and 5-HT2C receptors was assessed in in vitro radioligand binding experiments. […] During the incubation, the radioligands bind to the receptor. When equilibrium of binding is reached, the receptor bound radioactivity is separated from the non-bound radioactivity, and the receptor bound activity is counted. The interaction of the test compounds with the receptors is assessed in competition binding experiments. Various concentrations of the test compound are added to the incubation mixture containing the tissue preparation and the radioligand. Binding of the radioligand will be inhibited by the test compound in proportion to its binding affinity and its concentration. The affinities of the compounds for the 5-HT2 receptors were measured by means of radioligand binding studies conducted with: (a) human cloned 5-HT2A receptor, expressed in L929 cells using [^125I]R91150 as radioligand and (b) human cloned 5-HT2C receptor, expressed in CHO cells using [^3H]mesulergine as radioligand.

The target of assay [3] is T3, human cloned 5-HT2C receptor, expressed in CHO cells (Homo sapiens, UniProt P28335).
T3 construct: expressed in transfected cells; host or cells: CHO cells
T3 sequence (P28335 33-458): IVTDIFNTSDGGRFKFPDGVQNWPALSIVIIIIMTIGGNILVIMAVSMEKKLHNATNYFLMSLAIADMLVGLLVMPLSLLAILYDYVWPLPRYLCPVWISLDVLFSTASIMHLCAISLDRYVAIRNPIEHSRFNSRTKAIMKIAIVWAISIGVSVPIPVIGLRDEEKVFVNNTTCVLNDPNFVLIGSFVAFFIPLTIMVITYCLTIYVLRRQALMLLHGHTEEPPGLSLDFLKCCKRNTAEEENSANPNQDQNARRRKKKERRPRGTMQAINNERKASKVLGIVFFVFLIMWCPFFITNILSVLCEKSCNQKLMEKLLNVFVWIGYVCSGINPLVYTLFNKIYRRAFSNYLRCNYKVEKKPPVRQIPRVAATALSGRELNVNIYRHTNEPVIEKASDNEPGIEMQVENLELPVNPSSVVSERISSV
Kind of assay: In vitro binding affinity for 5-HT2C receptor ([3H]mesulergine radioligand binding). Conditions: human cloned 5-HT2C receptor; for IC50: read-out: 5-HT2C pIC50 (converted). The method, boiled down: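 Receptor-bound radioligand counted after separation from unbound label once equilibrium is reached. Test compound added across a concentration range to tissue preparation plus radioligand; inhibition of binding reflects affinity and concentration.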

The target in assay [4] is T4, NET (norepinephrine transporter) (Rattus norvegicus, UniProt Q63380).
T4 construct: Cortex from rat brain was collected and homogenised; from tissue; host or cells: rat brain cortex
Kind of assay: In vitro determination of NET reuptake inhibition ([3H]Nixosetine binding, rat brain cortex). Conditions: rat brain cortex; for IC50: read-out: NET pIC50 (converted). The method, boiled down: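 Competition curves and percentage specific binding came from scintillation counting of filter-trapped radioactivity. The membranes were rat cortical homogenate in pH 7.4 Tris buffer with 120 mM NaCl and 5 mM KCl. Test compounds competed with [3H]nisoxetine for binding.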

T4 sequence (Q63380 1-617): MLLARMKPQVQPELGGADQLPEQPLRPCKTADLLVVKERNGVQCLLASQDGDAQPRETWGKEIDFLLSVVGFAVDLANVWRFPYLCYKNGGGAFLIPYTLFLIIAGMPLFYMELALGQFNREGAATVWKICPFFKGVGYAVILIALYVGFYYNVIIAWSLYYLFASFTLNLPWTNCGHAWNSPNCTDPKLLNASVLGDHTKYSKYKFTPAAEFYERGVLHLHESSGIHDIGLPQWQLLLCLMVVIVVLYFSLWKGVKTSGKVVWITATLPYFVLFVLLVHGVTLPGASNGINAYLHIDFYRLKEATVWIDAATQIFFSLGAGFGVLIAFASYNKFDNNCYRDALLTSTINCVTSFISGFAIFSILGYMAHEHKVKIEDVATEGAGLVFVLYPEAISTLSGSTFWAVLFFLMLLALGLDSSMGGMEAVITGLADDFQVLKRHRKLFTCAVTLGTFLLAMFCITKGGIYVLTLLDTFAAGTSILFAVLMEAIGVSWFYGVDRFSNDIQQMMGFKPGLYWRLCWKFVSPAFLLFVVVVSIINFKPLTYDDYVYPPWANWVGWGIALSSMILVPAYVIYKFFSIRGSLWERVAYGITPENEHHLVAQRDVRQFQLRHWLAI
T2 sequence (P28223 whole entry): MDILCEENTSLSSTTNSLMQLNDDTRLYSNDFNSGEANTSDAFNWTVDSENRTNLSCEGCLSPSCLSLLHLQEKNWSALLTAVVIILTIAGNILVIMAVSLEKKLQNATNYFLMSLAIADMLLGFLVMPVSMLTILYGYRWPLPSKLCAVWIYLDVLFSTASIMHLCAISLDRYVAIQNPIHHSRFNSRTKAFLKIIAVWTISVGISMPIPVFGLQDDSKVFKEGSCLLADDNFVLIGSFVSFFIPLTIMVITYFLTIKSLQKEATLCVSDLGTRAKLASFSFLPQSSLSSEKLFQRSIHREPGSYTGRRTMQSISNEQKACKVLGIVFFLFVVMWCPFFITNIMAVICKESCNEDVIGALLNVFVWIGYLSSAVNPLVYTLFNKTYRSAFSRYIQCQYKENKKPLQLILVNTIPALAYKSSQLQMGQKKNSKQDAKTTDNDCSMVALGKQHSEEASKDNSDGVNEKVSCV
T1 sequence (P14416 whole entry): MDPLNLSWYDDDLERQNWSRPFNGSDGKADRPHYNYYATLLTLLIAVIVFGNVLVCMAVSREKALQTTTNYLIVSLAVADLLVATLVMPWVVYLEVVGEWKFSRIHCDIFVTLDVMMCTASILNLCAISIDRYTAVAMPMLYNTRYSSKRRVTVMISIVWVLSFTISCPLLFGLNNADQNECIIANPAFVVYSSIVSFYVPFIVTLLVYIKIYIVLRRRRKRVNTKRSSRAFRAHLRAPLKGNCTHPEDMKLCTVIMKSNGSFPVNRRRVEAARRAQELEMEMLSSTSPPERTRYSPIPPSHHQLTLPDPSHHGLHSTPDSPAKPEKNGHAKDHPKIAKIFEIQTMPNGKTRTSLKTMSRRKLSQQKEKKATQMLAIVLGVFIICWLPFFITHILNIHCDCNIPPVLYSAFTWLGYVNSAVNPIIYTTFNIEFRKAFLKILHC

On to `N#Cc1ccc2c(c1)[C@H]1C[C@@H](CN3CCC(O)C3)O[C@H]1c1cc(F)ccc1S2` (relative stereo) [Compound 260], for which the IC50 in assay [1] is 24.5 nM; in assay [2], 2.24 nM; in assay [3], 3.09 nM; in assay [4], 912 nM.

For the compound `CN1c2ccccc2[C@H]2C[C@@H](CN3CCC(O)C3)O[C@@H]2c2ccccc21` (relative stereo) [Compound 264], the IC50 in assay [1] was 2240 nM; in assay [2], 166 nM; in assay [3], 19.1 nM; in assay [4] it was 4170 nM.

In the case of `COC(=O)C1CCN(C[C@H]2C[C@@H]3c4ccccc4Cc4ccc(F)cc4[C@@H]3O2)C1` (single isomer, unassigned) [Compound 11, [2R-(2α, 3aα, 12bβ)]-(3′RS) 1-(11-fluoro-3,3a,8,12b-tetrahydro-2H-1-oxa-dibenzo[e,h]azulen-2-ylmethyl)-pyrrolidine-3-carboxylic acid methyl ester.oxalate (1:1)], the IC50 in assay [1] was 9.77 nM; in assay [2], 2.04 nM; in assay [3] it was 0.708 nM; in assay [4], 8320 nM.

Take `O=C(O)C(=O)O.OCC1CCCN(C[C@H]2C[C@@H]3c4ccccc4Cc4ccc(F)cc4[C@@H]3O2)C1` (single isomer, unassigned) [Compound 148]: the “D2L pIC50” value in assay [1] is listed as 8.35. For the same compound, the “5-HT2A pIC50” value in assay [2] was determined as 8.87. The “5-HT2C pIC50” value in assay [3] amounted to 8.71. For the same compound, the “NET pIC50” value in assay [4] is below 5.

With `O=C(O)C(=O)O.OCC1CCCN(C[C@H]2C[C@@H]3c4ccccc4Cc4ccc(F)cc4[C@@H]3O2)C1` (single isomer, unassigned) [Compound 149], the “D2L pIC50” value in assay [1] worked out at 8.61. In assay [2], the “5-HT2A pIC50” value amounted to 9.08. In assay [3], the “5-HT2C pIC50” value was determined as 9.10. The “NET pIC50” value in assay [4] is on record as below 5.52.

On to `OC1CCN(C[C@H]2C[C@@H]3c4ccccc4Cc4ccc(F)cc4[C@@H]3O2)C1` (stereo partly drawn) [Compound 1, [2R-(2α, 3aα, 12bβ)]-(3′RS) 1-(11-fluoro-3,3a,8,12b-tetrahydro-2H-1-oxa-dibenzo[e,h]azulen-2-ylmethyl)-pyrrolidin-3-ol.oxalate (1:1)], for which the IC50 was 7.41 nM in assay [1], 0.692 nM in assay [2], 0.372 nM in assay [3] and 479 nM in assay [4].

In the case of `COC1CCN(C[C@H]2C[C@@H]3c4ccccc4Cc4ccc(F)cc4[C@@H]3O2)C1` (stereo partly shown) [Compound 4], the IC50 in assay [1] was 16.2 nM; in assay [2], below 10 nM; in assay [3] it was 2.09 nM; in assay [4], 5890 nM.

Take `OCC1CCN(C[C@H]2C[C@@H]3c4ccccc4Cc4ccc(F)cc4[C@@H]3O2)C1` (stereo partly shown) [Compound 5]: the IC50 was 8.51 nM in assay [1], below 10 nM in assay [2], 0.204 nM in assay [3] and 4070 nM in assay [4].

With `O=C1CCN(C[C@H]2C[C@@H]3c4ccccc4Cc4ccc(F)cc4[C@@H]3O2)C1` [Compound 7, [2R-(2α, 3aα, 12bβ)]1-(11-fluoro-3,3a,8,12b-tetrahydro-2H-1-oxa-dibenzo[e,h]-azulen-2-ylmethyl)-pyrrolidin-3-one], the IC50 in assay [1] was 141 nM; in assay [2] it was below 10 nM; in assay [3] it was 2.95 nM; in assay [4], 1620 nM.

As to `O=C(O)C1CCN(C[C@H]2C[C@@H]3c4ccccc4Cc4ccc(F)cc4[C@@H]3O2)C1` (stereo partly shown) [Compound 10], the IC50 is 437 nM in assay [1], 17.4 nM in assay [2], 13.5 nM in assay [3] and above 10000 nM in assay [4].

As for `COC(=O)C1CCN(C[C@H]2C[C@@H]3c4ccccc4Cc4ccc(F)cc4[C@@H]3O2)C1` (stereo partly shown) [Compound 12], the IC50 in assay [1] was 6.31 nM; in assay [2], 1.17 nM; in assay [3] it was 2.04 nM; in assay [4] it was 759 nM.

With `O=C(Nc1ccc(F)cc1)OCC1CCN(CC2CC3c4ccccc4Cc4ccc(F)cc4C3O2)C1` (stereo not shown) [Compound 23], the IC50 in assay [1] was 5.62 nM; in assay [2] it was 2.95 nM; in assay [3] it was 3.8 nM; in assay [4], 3800 nM.

On to `COc1ccc(OCC2CCN(C[C@H]3C[C@@H]4c5ccccc5Cc5ccc(F)cc5[C@@H]4O3)C2)cc1` (stereo partly shown) [Compound 25], for which the IC50 in assay [1] was 6.03 nM; in assay [2], 1.58 nM; in assay [3], 4.68 nM; in assay [4], 2190 nM.

In the case of `Fc1ccc(OCC2CCN(CC3CC4c5ccccc5Cc5ccc(F)cc5C4O3)C2)cc1` (stereo not shown) [Compound 26], the IC50 in assay [1] was 3.63 nM; in assay [2] it was 5.13 nM; in assay [3], 5.62 nM; in assay [4] it was above 10000 nM.

For the compound `Fc1cccc(OCC2CCN(CC3CC4c5ccccc5Cc5ccc(F)cc5C4O3)C2)c1` (stereo not shown) [Compound 27], the IC50 in assay [1] is 3.89 nM; in assay [2], 8.71 nM; in assay [3], 4.27 nM; in assay [4], 5010 nM.

`Cc1ccc(OC2CCN(CC3CC4c5ccccc5Cc5ccc(F)cc5C4O3)C2)cc1` (stereo not shown) [Compound 28]: the IC50 in assay [1] is 7.59 nM; in assay [2], 18.6 nM; in assay [3], 1.78 nM; in assay [4] it was above 10000 nM.

In the case of `COC(=O)c1ccc(OC2CCN(CC3CC4c5ccccc5Cc5ccc(F)cc5C4O3)C2)cc1` (stereo not shown) [Compound 30], the IC50 was 16.2 nM in assay [1], 10.5 nM in assay [2], 5.75 nM in assay [3] and above 10000 nM in assay [4].

Regarding `CC1(O)CCN(C[C@H]2C[C@@H]3c4ccccc4Cc4ccc(F)cc4[C@@H]3O2)C1` (stereo partly shown) [Compound 39], the IC50 was 3.09 nM in assay [1], 0.631 nM in assay [2], 0.513 nM in assay [3] and 1950 nM in assay [4].

`C=CC1(O)CCN(CC2CC3c4ccccc4Cc4ccc(F)cc4C3O2)C1` (stereo not shown) [Compound 40]: the IC50 is 4.47 nM in assay [1], 1.23 nM in assay [2], 0.275 nM in assay [3] and above 10000 nM in assay [4].

For `NCCN1CCN(CC2CC3c4ccccc4Cc4ccc(F)cc4C3O2)CC1` (stereo not shown) [Compound 47], the IC50 in assay [1] was 10 nM; in assay [2], 6.46 nM; in assay [3] it was 34.7 nM; in assay [4], above 10000 nM.

With `Fc1ccc2c(c1)C1OC(CN3CCN(CC=Cc4ccccc4)CC3)CC1c1ccccc1C2` (stereo not shown) [Compound 48], the IC50 in assay [1] is 9.55 nM; in assay [2], 30.9 nM; in assay [3], 32.4 nM; in assay [4] it was 2090 nM.

In the case of `CC(=Cc1ccccc1)CN1CCN(CC2CC3c4ccccc4Cc4ccc(F)cc4C3O2)CC1` (stereo not shown) [Compound 49], the IC50 in assay [1] is 33.1 nM; in assay [2], 33.9 nM; in assay [3] it was 120 nM; in assay [4], 2570 nM.

On to `CCCCCC(=Cc1ccccc1)CN1CCN(CC2CC3c4ccccc4Cc4ccc(F)cc4C3O2)CC1` (stereo not shown) [Compound 50], for which the IC50 is 70.8 nM in assay [1], 34.7 nM in assay [2], 105 nM in assay [3] and 2140 nM in assay [4].

As to `O=C(CCN1CCN(CC2CC3c4ccccc4Cc4ccc(F)cc4C3O2)CC1)c1ccc(F)cc1` (stereo not shown) [Compound 52], the IC50 in assay [1] was 1.2 nM; in assay [2], 3.39 nM; in assay [3], 2.88 nM; in assay [4], 490 nM.

As to `Fc1ccc(OCCN2CCN(CC3CC4c5ccccc5Cc5ccc(F)cc5C4O3)CC2)cc1` (stereo not shown) [Compound 54], the IC50 in assay [1] was 2.45 nM; in assay [2], 7.59 nM; in assay [3], 8.13 nM; in assay [4], 2190 nM.

The record behind these values is patent US8569267B2, “Tetracyclic tetrahydrofuran derivatives containing cyclic amine side chain” (Janssen Pharmaceutica, NV, priority 2005, dated 2013).
